Measured values reported in the supplement of paper PMC8149375.

Tests used:
Settings in all cases: treatment: drug alone; 5 days
CAKI-1 [1] = assay: minimum viability across doses, drug alone, relative to DMSO (fraction); higher = less growth inhibition
Method: (§1)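 Primary HTS: 8 RCC cell lines treated with 8 doses (up to 10 uM) of each library drug alone for 5 days; viability read by CellTiter-Glo and normalised to DMSO. GI50 was fitted with XLfit (4-parameter), AUC is the area under the dose-response curve, and minimum viability is the lowest fraction of DMSO viability across doses.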

769-P [2] = assay: as above
Method: as §1

ACHN [3] = assay: as above
Method: as §1

TK-10 [4] = assay: as above
Method: as §1

A498 [5] = assay: as above
Method: as §1

UO-31 [6] = assay: as above
Method: as §1

786-O [7] = assay: as above
Method: as §1

SN12C [8] = assay: as above
Method: as §1

CAKI-1 [9] = assay: AUC of dose-response viability curve, drug alone (arbitrary (AUC of normalised viability)); higher = less growth inhibition
Method: as §1

769-P [10] = assay: as above
Method: as §1

ACHN [11] = assay: as above
Method: as §1

TK-10 [12] = assay: as above
Method: as §1

A498 [13] = assay: as above
Method: as §1

UO-31 [14] = assay: as above
Method: as §1

786-O [15] = assay: as above
Method: as §1

SN12C [16] = assay: as above
Method: as §1

CAKI-1 [17] = assay: GI50, drug alone; higher = less potent
Method: as §1

769-P [18] = assay: GI50, drug alone; higher = less potent
Method: as §1

ACHN [19] = assay: GI50, drug alone; higher = less potent
Method: as §1

TK-10 [20] = assay: GI50, drug alone; higher = less potent
Method: as §1

A498 [21] = assay: GI50, drug alone; higher = less potent
Method: as §1

UO-31 [22] = assay: GI50, drug alone; higher = less potent
Method: as §1

786-O [23] = assay: GI50, drug alone; higher = less potent
Method: as §1

SN12C [24] = assay: GI50, drug alone; higher = less potent
Method: as §1

GI50, drug alone (ACHN [19]) [µM] | GI50, drug alone (786-O [23]) [µM] | Structure (SMILES) | minimum viability across doses (CAKI-1 [1]) | minimum viability across doses (769-P [2]) | minimum viability across doses (ACHN [3]) | minimum viability across doses (TK-10 [4]) | minimum viability across doses (A498 [5]) | minimum viability across doses (UO-31 [6]) | minimum viability across doses (786-O [7]) | minimum viability across doses (SN12C [8]) | AUC of dose-response viability curve (CAKI-1 [9]) | AUC of dose-response viability curve (769-P [10]) | AUC of dose-response viability curve (ACHN [11]) | AUC of dose-response viability curve (TK-10 [12]) | AUC of dose-response viability curve (A498 [13]) | AUC of dose-response viability curve (UO-31 [14]) | AUC of dose-response viability curve (786-O [15]) | AUC of dose-response viability curve (SN12C [16]) | GI50, drug alone (CAKI-1 [17]) [µM] | GI50, drug alone (769-P [18]) [µM] | GI50, drug alone (TK-10 [20]) [µM] | GI50, drug alone (A498 [21]) [µM] | GI50, drug alone (UO-31 [22]) [µM] | GI50, drug alone (SN12C [24]) [µM]
0.415 | 8.51 | CCN1CCN(Cc2ccc(-c3cc4c(N[C@H](C)c5ccccc5)ncnc4[nH]3)cc2)CC1 [AEE788 (NVP-AEE788)] | 0.0495 | 0.0865 | 0.0622 | 0.0159 | 0.898 | 0.0104 | 0.108 | 0.276 | 2.81 | 2.61 | 2.1 | 2.13 | 3.87 | 3.98 | 3.45 | 2.77 | 3.19 | 1.64 | 0.581 | > 10 | 7.87 | 4.79
7.43 | 5.99 | N#C/C(=C\c1ccc(O)c(O)c1)C(=O)NCc1ccccc1 [AG-490] | 0.948 | 0.823 | 0.301 | 0.615 | 1.04 | 0.843 | 0.369 | 0.788 | 3.57 | 3.27 | 3.09 | 3.21 | 3.87 | 4.19 | 2.89 | 3.37 | > 10 | > 10 | > 10 | > 10 | > 10 | > 10
1.16 | 5.49 | COc1cc2ncnc(Nc3cccc(Cl)c3)c2cc1OC [AG-1478 (Tyrphostin AG-1478)] | 0.628 | 0.481 | 0.37 | 0.472 | 1.01 | 0.795 | 0.179 | 0.813 | 2.91 | 2.48 | 2.24 | 2.36 | 4.85 | 4.04 | 2.32 | 2.95 | > 10 | 3.24 | 2.85 | > 10 | > 10 | > 10

Structure (SMILES) | GI50, drug alone (ACHN [19]) [µM] | GI50, drug alone (786-O [23]) [µM] | minimum viability across doses (CAKI-1 [1]) | minimum viability across doses (769-P [2]) | minimum viability across doses (ACHN [3]) | minimum viability across doses (TK-10 [4]) | minimum viability across doses (A498 [5]) | minimum viability across doses (UO-31 [6]) | minimum viability across doses (786-O [7]) | minimum viability across doses (SN12C [8]) | AUC of dose-response viability curve (CAKI-1 [9]) | AUC of dose-response viability curve (769-P [10]) | AUC of dose-response viability curve (ACHN [11]) | AUC of dose-response viability curve (TK-10 [12]) | AUC of dose-response viability curve (A498 [13]) | AUC of dose-response viability curve (UO-31 [14]) | AUC of dose-response viability curve (786-O [15]) | AUC of dose-response viability curve (SN12C [16]) | GI50, drug alone (CAKI-1 [17]) [µM] | GI50, drug alone (769-P [18]) [µM] | GI50, drug alone (TK-10 [20]) [µM] | GI50, drug alone (A498 [21]) [µM] | GI50, drug alone (UO-31 [22]) [µM] | GI50, drug alone (SN12C [24]) [µM]
CC(C)(C)c1cc(C=C(C#N)C#N)cc(Br)c1O [AG-1024] | > 10 | > 10 | 0.846 | 0.853 | 0.904 | 0.791 | 1.02 | 1.24 | 0.729 | 0.919 | 3.65 | 3.41 | 3.56 | 3.13 | 3.94 | 4.79 | 2.78 | 3.53 | > 10 | > 10 | > 10 | > 10 | > 10 | > 10
